From patent US20250136576A1, “Heterocyclic Compounds and Uses Thereof” (ACEA Therapeutics, Inc., priority 2021, published 2025)
Read-outs that look alike come from different tables or passages of the source.

Tests used:
[1] = tested on: H1975 cells; assay: Cell proliferation and growth inhibition assay (CCK-8) in H1975; assay type: cell-based; conditions: Homo sapiens, NCI-H1975, 72 h, treated with test compounds for 72 hrs, CCK-8 viability, read-out: EGFR IC50 in H1975
Description: MV-4-11 and H1975 cells were obtained from the American Type Culture Collection and KM12-luc cells were obtained from JCRB Cell Bank. All cell lines were maintained at 37° C. with 5% C02, in media supplemented with 10% fetal bovine serum and penicillin (100 units/mL) and streptomycin (100 μg/mL). MV-4-11 cells were maintained in Iscove's Modified Dubecco's Medium, H1975 cells were cultured with RPMI 1640 media, and KM12-luc cells were maintained in Dulbecco's Modification of Eagle's Medium. CCK-8 reagent was obtained from Yeasen.
Cell proliferation was assessed by CCK-8 assay (Yeasen) per the manufacturer's instructions. The MV-4-11 (AML), H1975, and KM12-luc cells were seeded at 30,000, 3,000 and 2,500 cells per well onto 96-well plates, and after a 24 h incubation, the cells were treated with test compounds for 72 hrs. Cell viability was assayed by incubating the cells with CCK-8 reagent for 1-4 hrs. Absorbance was measured at OD450 using the Beckman DTX880. The data was calculated using GraphPad Prism version 6.01. The IC50 values were fitted using a non-linear regression model with a sigmoidal dose response.

[2] = tested on: KM12-luc cells; assay: Cell proliferation and growth inhibition assay (CCK-8) in KM12-luc; assay type: cell-based; conditions: KM12-luc cells, treated with test compounds for 72 hrs, CCK-8 viability, read-out: NTRK IC50 in KM12-luc
Procedure, shortened: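 Cells were grown at 37 °C, 5% CO2 with 10% FBS: MV-4-11 in IMDM, H1975 in RPMI 1640, KM12-luc in DMEM. Viability was read by CCK-8 (1-4 hrs reagent incubation, absorbance at OD450). IC50 came from a non-linear sigmoidal dose-response fit.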

Structure (SMILES) | IC50 [1] [nM] | IC50 ([2]; KM12-Luc, 72 h) [nM] | other results
CCC(=O)Nc1cc(Nc2nc(-c3c[nH]c4c(OC)cccc34)c3cc[nH]c3n2)ccc1N(C)CCN(C)C [Compound 518, N-(2-((2-(dimethylamino)ethyl)(methyl)amino)-5-((4-(7-methoxy-1H-indol-3-yl)-7H-pyrrolo[2,3-d]pyrimidin-2-yl)amino)phenyl)propionamide] | 406 |  | 
CN(C)CCN(C)c1ccc(Nc2ncc(F)c(-c3c[nH]c4c(F)cccc34)n2)cc1N [Compound 520, N^1-(2-(dimethylamino)ethyl)-N^4-(5-fluoro-4-(7-fluoro-1H-indol-3-yl)pyrimidin-2-yl)-N-methylbenzene-1,2,4-triamine] | 1180 |  | 
CC(=O)Nc1cc(Nc2ncc(F)c(-c3c[nH]c4c(F)cccc34)n2)ccc1N(C)CCN(C)C [Compound 521, N-(2-((2-(dimethylamino)ethyl)(methyl)amino)-5-((5-fluoro-4-(7-fluoro-1H-indol-3-yl)pyrimidin-2-yl)amino)phenyl)acetamide] | 695 |  | 
CCC(=O)Nc1cc(Nc2ncc(F)c(-c3c[nH]c4c(F)cccc34)n2)ccc1N(C)CCN(C)C [Compound 522, N-(2-((2-(dimethylamino)ethyl)(methyl)amino)-5-((5-fluoro-4-(7-fluoro-1H-indol-3-yl)pyrimidin-2-yl)amino)phenyl)propionamide] | 999 |  | 
Cc1cccc2c(-c3nc(Nc4ccc(N(C)CCN(C)C)c(N)c4)ncc3F)c[nH]c12 [Compound 524, N^1-(2-(dimethylamino)ethyl)-N^4-(5-fluoro-4-(7-methyl-1H-indol-3-yl)pyrimidin-2-yl)-N^1-methylbenzene-1,2,4-triamine] | 425 |  | 
CC(=O)Nc1cc(Nc2ncc(F)c(-c3c[nH]c4c(C)cccc34)n2)ccc1N(C)CCN(C)C [Compound 525, N-(2-((2-(dimethylamino)ethyl)(methyl)amino)-5-((5-fluoro-4-(7-methyl-1H-indol-3-yl)pyrimidin-2-yl)amino)phenyl)acetamide] | 406 |  | 
CCC(=O)Nc1cc(Nc2ncc(F)c(-c3c[nH]c4c(C)cccc34)n2)ccc1N(C)CCN(C)C [Compound 526, N-(2-((2-(dimethylamino)ethyl)(methyl)amino)-5-((5-fluoro-4-(7-methyl-1H-indol-3-yl)pyrimidin-2-yl)amino)phenyl)propionamide] | 656 |  | 
COc1cccc2c(-c3nc(Nc4ccc(N(C)CCN(C)C)c(N)c4)ncc3F)c[nH]c12 [Compound 528, N^1-(2-(dimethylamino)ethyl)-N^1-methyl-N^4-(5-fluoro-4-(7-methoxy-1H-indol-3-yl)pyrimidin-2-yl)benzene-1,2,4-triamine] | 298 |  | 
COc1cccc2c(-c3nc(Nc4ccc(N(C)CCN(C)C)c(NC(C)=O)c4)ncc3F)c[nH]c12 [Compound 529, N-(2-((2-(dimethylamino)ethyl)(methyl)amino)-5-((5-fluoro-4-(7-methoxy-1H-indol-3-yl)pyrimidin-2-yl)amino)phenyl)acetamide] | 958 |  | 
CCC(=O)Nc1cc(Nc2ncc(F)c(-c3c[nH]c4c(OC)cccc34)n2)ccc1N(C)CCN(C)C [Compound 530, N-(2-((2-(dimethylamino)ethyl)(methyl)amino)-5-((5-fluoro-4-(7-methoxy-1H-indol-3-yl)pyrimidin-2-yl)amino)phenyl)propionamide] | 769 |  | 
COc1cnc(Nc2ccc(N(C)CCN(C)C)c(N)c2)nc1-c1c[nH]c2c(C)cccc12 [Compound 532, N^1-(2-(dimethylamino)ethyl)-N^1-methyl-N^4-(5-methoxy-4-(7-methyl-1H-indol-3-yl)pyrimidin-2-yl)benzene-1,2,4-triamine] | 791 |  | 
COc1cnc(Nc2ccc(N(C)CCN(C)C)c(NC(C)=O)c2)nc1-c1c[nH]c2c(C)cccc12 [Compound 533, N-(2-((2-(dimethylamino)ethyl)(methyl)amino)-5-((5-methoxy-4-(7-methyl-1H-indol-3-yl)pyrimidin-2-yl)amino)phenyl)acetamide] | 1110 |  | 
CCC(=O)Nc1cc(Nc2ncc(OC)c(-c3c[nH]c4c(C)cccc34)n2)ccc1N(C)CCN(C)C [Compound 534, N-(2-((2-(dimethylamino)ethyl)(methyl)amino)-5-((5-methoxy-4-(7-methyl-1H-indol-3-yl)pyrimidin-2-yl)amino)phenyl)propionamide] | 1300 |  | 
CN(C)[C@H]1CCN(c2ccc(Nc3ncc(C(F)(F)F)c(-c4c[nH]c5c(F)cccc45)n3)cc2N)C1 [Compound S-345, (S)-4-(3-(dimethylamino)pyrrolidin-1-yl)-N^1-(4-(7-fluoro-1H-indol-3-yl)-5-(trifluoromethyl)pyrimidin-2-yl)benzene-1,3-diamine] |  | 8.2 | 
CC(=O)Nc1cc(Nc2ncc(C(F)(F)F)c(-c3cn(C)c4c(F)cccc34)n2)ccc1N1CC[C@H](N(C)C)C1 [Compound S-353, (S)—N-(2-(3-(dimethylamino)pyrrolidin-1-yl)-5-((4-(7-fluoro-1-methyl-1H-indol-3-yl)-5-(trifluoromethyl)pyrimidin-2-yl)amino)phenyl)acetamide] |  | 35.2 | 
CN(C)[C@H]1CCN(c2ccc(Nc3ncc(C(F)(F)F)c(-c4cn(C)c5c(F)cccc45)n3)cc2N)C1 [Compound S-354, (S)-4-(3-(dimethylamino)pyrrolidin-1-yl)-N^1-(4-(7-fluoro-1-methyl-1H-indol-3-yl)-5-(trifluoromethyl)pyrimidin-2-yl)benzene-1,3-diamine] |  | 56.3 | 
Cc1cccc2c(-c3nc(Nc4ccc(N5CC[C@H](N(C)C)C5)c(N)c4)ncc3C(F)(F)F)c[nH]c12 [Compound S-367, (S)-4-(3-(dimethylamino)pyrrolidin-1-yl)-N^1-(4-(7-methyl-1H-indol-3-yl)-5-(trifluoromethyl)pyrimidin-2-yl)benzene-1,3-diamine] |  | 4.6 | 
COc1cccc2c(-c3ncc(C(F)(F)F)c(Nc4ccc(N5CC[C@H](N(C)C)C5)c(NC(C)=O)c4)n3)c[nH]c12 [Compound S-382b, (S)—N-(2-(3-(dimethylamino)pyrrolidin-1-yl)-5-((2-(7-methoxy-1H-indol-3-yl)-5-(trifluoromethyl)pyrimidin-4-yl)amino)phenyl)acetamide] |  | 349 | 
COc1cccc2c(-c3nc(Nc4ccc(N5CC[C@H](N(C)C)C5)c(N)c4)ncc3C(F)(F)F)cn(C)c12 [Compound S-390, (S)-4-(3-(dimethylamino)pyrrolidin-1-yl)-N^1-(4-(7-methoxy-1-methyl-1H-indol-3-yl)-5-(trifluoromethyl)pyrimidin-2-yl)benzene-1,3-diamine] |  | 44.6 | 
CC(=O)Nc1cc(Nc2ncc(Cl)c(-c3c[nH]c4c(F)cccc34)n2)ccc1N1CC[C@H](N(C)C)C1 [Compound S-409, (S)—N-(5-((5-chloro-4-(7-fluoro-1H-indol-3-yl)pyrimidin-2-yl)amino)-2-(3-(dimethylamino)pyrrolidin-1-yl)phenyl)acetamide] |  | 24.6 | 
CN(C)[C@H]1CCN(c2ccc(Nc3ncc(Cl)c(-c4c[nH]c5c(F)cccc45)n3)cc2N)C1 [Compound S-414, (S)—N^1-(5-chloro-4-(7-fluoro-1H-indol-3-yl)pyrimidin-2-yl)-4-(3-(dimethylamino)pyrrolidin-1-yl)benzene-1,3-diamine] |  | 50.1 | 
CC(=O)Nc1cc(Nc2ncc(Cl)c(-c3cn(C)c4c(F)cccc34)n2)ccc1N1CC[C@H](N(C)C)C1 [Compound S-415, (S)—N-(5-((5-chloro-4-(7-fluoro-1-methyl-1H-indol-3-yl)pyrimidin-2-yl)amino)-2-(3-(dimethylamino)pyrrolidin-1-yl)phenyl)acetamide] |  | 155 | 
CN(C)[C@H]1CCN(c2ccc(Nc3ncc(Cl)c(-c4cn(C)c5c(F)cccc45)n3)cc2N)C1 [Compound S-420, (S)—N^1-(5-chloro-4-(7-fluoro-1-methyl-1H-indol-3-yl)pyrimidin-2-yl)-4-(3-(dimethylamino)pyrrolidin-1-yl)benzene-1,3-diamine] |  | 261 | 
Cc1cccc2c(-c3nc(Nc4ccc(N5CC[C@H](N(C)C)C5)c(N)c4)ncc3Cl)cn(C)c12 [Compound S-431, (S)—N-(5-chloro-4-(1,7-dimethyl-1H-indol-3-yl)pyrimidin-2-yl)-4-(3-(dimethylamino)pyrrolidin-1-yl)benzene-1,3-diamine] |  |  | IC50 [2]: 39.6 nM
CC(=O)Nc1cc(Nc2ncc(Cl)c(-c3cn(C)c4c(C)cccc34)n2)ccc1N1CC[C@H](N(C)C)C1 [Compound S-432, (S)—N-(5-((5-chloro-4-(1,7-dimethyl-1H-indol-3-yl)pyrimidin-2-yl)amino)-2-(3-(dimethylamino)pyrrolidin-1-yl)phenyl)acetamide] |  |  | IC50 [2]: 22.4 nM
COc1cccc2c(-c3nc(Nc4ccc(N5CC[C@H](N(C)C)C5)c(N)c4)ncc3Cl)cn(C)c12 [Compound S-439, (S)—N^1-(5-chloro-4-(7-methoxy-1-methyl-1H-indol-3-yl)pyrimidin-2-yl)-4-(3-(dimethylamino)pyrrolidin-1-yl)benzene-1,3-diamine] |  | 150 | 
